From ChEMBL document CHEMBL1127129, “N,N-disubstituted acetamidines as high affinity sigma receptor ligands” (Bioorg Med Chem Lett, 1993)

Target: Glutamate NMDA receptor
Experiment: The compound was evaluated for binding affinity against NMDA receptor ion-channel site using [3H]-MK 801 radioligand in rat brain membranes
Assay type: cell membranes

SMILES	IC50
C/C(=N\C1CCCCC1)NC12CC3CC(CC(C3)C1)C2	10 µM
C/C(=N\c1ccccc1C)Nc1ccccc1C	10 µM
C/C(=N\C1CCCCC1)Nc1ccccc1C	10 µM
C/C(=N\C1CC2CCC1C2)Nc1ccccc1C (configuration not stated)	80 µM
C/C(=N\C12CC3CC(CC(C3)C1)C2)Nc1ccccc1C	10 µM

More lines, now with the values ahead:

IC50	SMILES
10 µM	C/C(=N\C12CC3CC(CC(C3)C1)C2)NC12CC3CC(CC(C3)C1)C2
9.11 µM	C/C(=N\c1ccc(Br)cc1C)Nc1ccc(Br)cc1C
